# Results as given in PMC2650797 (Carcinogenesis, 2009).
# Molecular target: T1, Cytochrome P450 (CYP) 1A2 (Homo sapiens, UniProt P05177)
# T1 sequence (P05177 2-516): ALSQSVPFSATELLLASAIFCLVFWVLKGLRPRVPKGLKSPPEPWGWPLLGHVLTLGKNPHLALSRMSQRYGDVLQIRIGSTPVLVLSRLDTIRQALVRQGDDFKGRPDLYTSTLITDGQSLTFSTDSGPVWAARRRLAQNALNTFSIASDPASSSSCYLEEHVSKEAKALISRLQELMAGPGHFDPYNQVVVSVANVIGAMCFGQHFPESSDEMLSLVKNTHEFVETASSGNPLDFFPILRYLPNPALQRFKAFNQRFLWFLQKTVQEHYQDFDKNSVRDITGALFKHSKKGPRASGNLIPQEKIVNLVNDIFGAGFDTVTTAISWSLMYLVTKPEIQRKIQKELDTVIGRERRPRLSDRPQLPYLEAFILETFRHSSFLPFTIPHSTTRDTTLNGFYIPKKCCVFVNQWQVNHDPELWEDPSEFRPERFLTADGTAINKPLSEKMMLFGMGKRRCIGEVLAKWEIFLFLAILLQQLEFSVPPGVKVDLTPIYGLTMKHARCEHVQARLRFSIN
# Assay: 7-ethoxyresorufin O-deethylase fluorescence inhibition assay
# Type: biochemical
row,IC50 [µM],SMILES
1,~12.8,"CC(C)(C)c1cc(=S)ss1 [TBD, 5-tert-butyl-3H-1,2-dithiole-3-thione]"
2,~0.2,"Cc1c(-c2cnccn2)ssc1=S [OLT, 4-methyl-5-pyrazinyl-3H-1,2-dithiole-3-thione]"
